This is an account of results in patent US20100098633A1, “SELECTIVE SEPRASE INHIBITORS” (Molecular Insight Pharmaceuticals, Inc., priority 2008, published 2010).

This experiment addresses T1, recombinant human seprase (rhFAP) (Homo sapiens, UniProt Q12884).
T1 sequence (Q12884 26-760 limits assumed): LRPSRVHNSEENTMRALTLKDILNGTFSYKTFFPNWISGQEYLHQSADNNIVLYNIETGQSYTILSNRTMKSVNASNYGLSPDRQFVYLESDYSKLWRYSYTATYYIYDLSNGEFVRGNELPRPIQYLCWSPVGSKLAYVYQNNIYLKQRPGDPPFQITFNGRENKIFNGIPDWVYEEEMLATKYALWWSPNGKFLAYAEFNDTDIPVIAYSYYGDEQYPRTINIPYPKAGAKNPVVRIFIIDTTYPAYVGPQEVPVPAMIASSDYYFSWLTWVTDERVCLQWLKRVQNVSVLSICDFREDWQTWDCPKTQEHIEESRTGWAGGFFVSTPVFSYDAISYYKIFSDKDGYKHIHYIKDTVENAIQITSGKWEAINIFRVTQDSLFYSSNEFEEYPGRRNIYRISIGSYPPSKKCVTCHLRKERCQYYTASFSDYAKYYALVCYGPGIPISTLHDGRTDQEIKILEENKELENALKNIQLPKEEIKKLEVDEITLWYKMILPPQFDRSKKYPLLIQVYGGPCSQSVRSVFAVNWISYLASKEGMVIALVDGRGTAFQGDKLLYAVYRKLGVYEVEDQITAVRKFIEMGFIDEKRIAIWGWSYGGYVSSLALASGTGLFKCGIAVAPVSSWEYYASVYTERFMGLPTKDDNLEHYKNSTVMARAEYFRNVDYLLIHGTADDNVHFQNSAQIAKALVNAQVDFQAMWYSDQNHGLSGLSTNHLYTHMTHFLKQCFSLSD
Put plainly: Inhibition of enzymatic activity of recombinant human seprase on Z-Gly-Pro-AMC (fluorescence). Type of experiment: biochemical. The settings on record: for IC50: in vitro data against seprase, read-out: FAP (IC50 nM). As for the experimental part: In vitro assaying of compounds for inhibition of dipeptidyl peptidase activity of seprase and DPP-IV can be achieved following the described in Edosada C. Y. et al. J. Biolog. Chem. 2006, 281, 7437-7444.
Selected test compounds were examined for their ability to inhibit the enzymatic activity of recombinant human seprase (rhFAP) on the substrate, benzyloxycarbonyl-Gly-Pro-7-amido-4-methylcoumarin (Z-Gly-Pro-AMC). In brief, 10 μg rhFAP was added to 50 μM Z-Gly-Pro-AMC in the presence of increasing concentrations of test compound, and enzymatic activity was determined by monitoring fluorescence (Ex. 355 nm/Em. 460 nm). Compound 1051 is the known inhibitor, Cbz-Gly-boroproline. Initial velocity of the reaction was calculated and normalized to control reactions conducted in the absence of test compound.
The inhibition was measured by the half maximal inhibitory concentration (IC50) of a compound of interest. The IC50 indicates how much of a particular compound is needed to inhibit seprase by half.

For the compound `NC(Cc1ccc(I)cc1)C(=O)NCC(=O)N1CCCC1B(O)O` (centres unmarked) [Compound 1035, 1-(2-(2-amino-3-(4-iodophenyl)propanamido)acetyl)pyrrolidin-2-ylboronic acid], the IC50 (commonly the concentration at which inhibition is half-maximal) amounted to 340 nM.
Turning to `N#C[C@@H]1CCCN1C(=O)CNC(=O)[C@@H](CC(=O)O)NC(=O)c1cccc(I)c1` [Compound 1048, (R)-4-(2-((S)-2-cyanopyrrolidin-1-yl)-2-oxoethylamino)-3-(3-iodobenzamido)-4-oxobutanoic acid], the IC50 came out at 7410 nM.
`O=C(NCC(=O)N1CCCC1B(O)O)c1ccc2cc(I)ccc2c1` (centres unmarked) [Compound 1030, 1-(2-(6-iodo-2-naphthamido)acetyl)pyrrolidin-2-ylboronic acid]: the “IC50 values against seprase (in words)” value is recorded as “low nanomolar range” and the IC50 came out at 2 nM.
On to “Re(CO)3-(S)-2,2′-(2,2′-(6-(2-(2-cyanopyrrolidin-1-yl)-2-oxoethylamino)-6-oxohexylazanediyl)bis(methylene)bis(1H-imidazole-2,1-diyl))diacetic acid [Compound 1022]”, for which the IC50 stood at 236 nM.
